Experimental data reported in paper PMC3906059, “Activation and Inhibition of TMEM16A Calcium-Activated Chloride Channels” (PLoS ONE, 2014).
Like-named read-outs stand apart in the source and are kept apart here. Blank lines part the entries; values can stand above or below the compound they belong to.

How the values were obtained:
TMEM16A (ANO1) [1] = target: T1, TMEM16A (ANO1) (Mus musculus, UniProt Q8BHY3); assay: Activation of ANO1 current by divalent cations, excised inside-out patch with fast solution exchange; format: cell-based
T1 construct: We subcloned the coding region of the cDNA into pEGFP-N3 vector; expressed in transfected cells; host or cells: HEK293 cells
T1 sequence (Q8BHY3 1-956 isoform Q8BHY3-2): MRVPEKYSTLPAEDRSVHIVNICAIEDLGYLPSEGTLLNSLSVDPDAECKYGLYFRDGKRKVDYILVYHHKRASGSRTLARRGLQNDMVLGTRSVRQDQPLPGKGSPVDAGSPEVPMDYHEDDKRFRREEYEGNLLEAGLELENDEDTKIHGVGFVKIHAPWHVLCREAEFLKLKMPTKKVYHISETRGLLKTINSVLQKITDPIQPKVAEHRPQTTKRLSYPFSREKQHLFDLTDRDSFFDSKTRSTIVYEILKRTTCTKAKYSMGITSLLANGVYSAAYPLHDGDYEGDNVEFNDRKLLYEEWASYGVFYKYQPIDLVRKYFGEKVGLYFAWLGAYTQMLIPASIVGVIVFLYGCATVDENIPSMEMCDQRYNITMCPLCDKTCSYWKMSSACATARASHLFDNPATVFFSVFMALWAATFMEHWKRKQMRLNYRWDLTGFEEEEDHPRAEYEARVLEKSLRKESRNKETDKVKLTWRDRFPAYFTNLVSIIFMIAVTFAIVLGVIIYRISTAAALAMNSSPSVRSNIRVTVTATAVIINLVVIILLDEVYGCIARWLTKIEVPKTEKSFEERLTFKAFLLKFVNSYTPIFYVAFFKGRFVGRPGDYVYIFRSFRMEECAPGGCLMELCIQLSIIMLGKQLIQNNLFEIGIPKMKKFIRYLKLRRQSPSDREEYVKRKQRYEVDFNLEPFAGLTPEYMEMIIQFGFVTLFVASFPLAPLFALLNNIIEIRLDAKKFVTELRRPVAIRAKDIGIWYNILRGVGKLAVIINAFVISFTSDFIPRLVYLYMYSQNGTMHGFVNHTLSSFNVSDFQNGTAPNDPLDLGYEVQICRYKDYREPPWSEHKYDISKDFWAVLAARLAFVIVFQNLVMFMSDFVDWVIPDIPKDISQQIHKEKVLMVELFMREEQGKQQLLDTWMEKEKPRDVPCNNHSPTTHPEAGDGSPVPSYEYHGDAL
Excerpt: (§1) The mouse TMEM16A cDNA (NCBI reference sequence: NM_001242349.1) encoding ANO1 CaCC was a generous gift from Dr. Lily Jan. We subcloned the coding region of the cDNA into pEGFP-N3 vector (Clontech Laboratories, Inc.), resulting in a construct in which an enhanced green fluorescent protein (eGFP) was attached to the C-terminus of the ANO1 protein. The sequence was confirmed by commercially-available DNA sequencing service. This eGFP-attached ANO1 cDNA construct was used for channel expression throughout the study. The cDNA was transfected into human embryonic kidney (HEK) 293 cells using lipofectamine transfection methods, [42], [43]. A fluorescent light source and a GFP filter set (Chroma Technology Co.) in the DM IRB inverted microscope (Leica Microsystems) were used to identify transfected cells expressing channel proteins. Electrophysiological experiments were performed ∼24 to 72 hours after transfection.
(§2) All chemicals were reagent grade. Regular salts (such as NaCl, NaOH, CaCl2, SrCl2, BaCl2, MgCl2 or sodium salts of various anions) were purchased from Fisher Chemicals (Fair Lawn, NJ), J. T. Baker (Phillipsburg, NJ) or Sigma Chemicals Co. (St. Louis, MO). EGTA, HEPES, and NFA were from Sigma Chemicals Co. Excised inside-out patch-clamp recordings were performed throughout the study. The extracellular (pipette) solution in all experiments contained: 140 mM NaCl, 10 mM HEPES, 0.1 mM EGTA, pH = 7.4. The regular intracellular solution contained 10 mM HEPES and 140 mM sodium salt of Cl^− or other anions. Various concentrations of divalent cations were made by adding certain total concentrations of divalent cations (Cl^− salts) into the solution containing a defined concentration of EGTA. We defined the pipette solution as the “zero-Ca^2+” solution. A solution containing a saturating [Ca^2+] was made by adding 0.12 mM total [Ca^2+] into the aforementioned zero-Ca^2+ solution, resulting in a solution containing ∼20 µM free [Ca^2+]. For making non-saturating [Ca^2+] solutions, the solutions included 1 mM EGTA. To make solutions containing Sr^2+ and Ba^2+, only 0.1 mM EGTA was used. The pH of all solutions was adjusted to 7.4.
Because of weak Mg^2+-EGTA binding, we referred the total [Mg^2+] as the free [Mg^2+]. The free [Ca^2+], [Sr^2+], and [Ba^2+] were calculated using the MaxChelator program (Ver1.2) kindly provided by Chris Patton from the Stanford University. This program was developed based on the binding constants available in the National Institute of Standard and Technology (NIST) between EGTA and these three divalent cations. Table S1, Table S2, and Table S3 list respectively the calculated free [Ca^2+], [Sr^2+], and [Ba^2+] used in this study. All added divalent cations were Cl^− salts. […] For example, in a solution containing 5 mM, 10 mM or 30 mM MgCl2, only 130 mM, 120 mM or 80 mM of NaCl, respectively, were added to the solution.
The patch-clamp recording pipettes were fabricated from borosilicate glass capillaries (World Precision Instruments) using PP830 electrode puller (Narishige International). When filled with the pipette solution, the electrode resistance was ∼1.5–3 MΩ. The experiments were carried out at room temperature (20–23°C) using the Axopatch 200B amplifier controlled by the Digidata I/O converter and the pClamp9 software (Axon Instruments/Molecular Devices).
Solution exchange was achieved using the SF-77 solution exchanger (Warner Instruments). After the excised inside-out patch mode was established, the tip of the patch pipette was positioned at the exit of the solution-delivery pipes of the SF-77 solution exchanger. The switch of solution pipes was controlled by a digital signal delivered from the Digidata 1320 digitizing board. […]

TMEM16A = conditions: cited from earlier work
TMEM16A (ANO1) [2] = target: T1, TMEM16A (ANO1); assay: NFA inhibition of ANO1 current, intracellular application to inside-out patch; format: cell-based
Excerpt: as §1, §2
The inhibition of ANO1 by intracellular NFA was achieved by directly applying NFA to the intracellular side of the membrane patch using fast-solution exchange. Except where indicated, the ANO1 current was induced by saturating [Ca^2+] followed by the application of various [NFA] in the solution containing the same [Ca^2+]. The steady-state current (I) at the end of NFA application was divided by the current in the absence of NFA (I0) before and after the drug application to obtain the percentage of current remained in the presence of NFA.
For dose-response inhibition by NFA, the current (I) measured at the end of the NFA application was normalized to the current amplitude in the absence of NFA (I0). The ratio I/I0 was then plotted against [NFA], and the concentration-dependent inhibition curve was fitted to a Langmuir function (eq. 2), I/I0 = 1/(1+ [NFA]/K1/2), where K1/2 is the half-inhibition [NFA].
For comparing two treatments that might differentially affect the apparent affinity of the NFA inhibition (for example, Fig. 8 C & D), the summation of the residual error (namely, the residual sum of squares of the error) from the curve fitting of each treatment was compared to the residual error from the curve fitting of the pooled data. If the former was statistically smaller than the latter using F test, the two regression curves would be considered different. The statistically significant level (α) was set at 0.05.

TMEM16A (ANO1) [3] = target: T1, TMEM16A (ANO1); assay: as above; format: cell-based; remark: listed apart in the source
CaCC of Xenopus oocytes = tested on: CaCC of Xenopus oocytes; design: method as in PMID 11279188; conditions: cited from earlier work

difference of K1/2,Ca between +40 mV and −40 mV (TMEM16A (ANO1) [1]): 100 nM
fraction of saturated current activated (TMEM16A (ANO1) [1]; 666 nM [Ca^2+], ±40 mV, in the presence or absence of 20 µM NFA): ~90%
EC50 (TMEM16A (ANO1) [1]; +40 mV, fit to Hill equation (eq. 1), normalized to Is induced by 20 µM free Ca^2+, read-out: half-activation [Ca^2+] (K1/2,Ca)): 0.466 µM
Hill coefficient (n) of dose-response activation curve (TMEM16A (ANO1) [1]; values covering +40 and −40 mV): ~4
EC50 (TMEM16A (ANO1) [1]; values covering +40 and −40 mV, read-out: K1/2 of ANO1 activation): ~0.5 µM
SMILES: [Ca+2] [Ca^2+]
maximal ANO1 current activated by saturating divalent cation compared with Is induced by saturating [Ca^2+] (TMEM16A (ANO1) [1]; Is induced by 20 µM Ca^2+, ±40 mV): activated the channel to the same maximal current level
EC50 (TMEM16A; +80 mV, read-out: K1/2,Ca): 0.063 µM
EC50 (TMEM16A; −60 mV, lower end of literature range, read-out: half-effective concentration of Ca^2+ (K1/2,Ca)): < 0.1 µM
EC50 (TMEM16A; −60 mV, upper end of literature range, read-out: half-effective concentration of Ca^2+ (K1/2,Ca)): > 2 µM

effect of NFA on sensitivity of ANO1 to Ca^2+ activation (TMEM16A (ANO1) [2]; 20 µM NFA, current induced by 666 nM Ca^2+ at ±40 mV): not reduced
IC50 (TMEM16A (ANO1) [2]; 140 mM intracellular NaBr, pipette 140 mM Cl^−, read-out: K1/2 of NFA inhibition): 39.2 ± 1.1 µM
IC50 (TMEM16A (ANO1) [2]; 140 mM intracellular NaCl, pipette 140 mM Cl^−, read-out: K1/2 of NFA inhibition): 17.9 ± 1.1 µM
IC50 (TMEM16A (ANO1) [2]; 140 mM intracellular NaI, pipette 140 mM Cl^−, read-out: K1/2 of NFA inhibition): 85.5 ± 3.6 µM
IC50 (TMEM16A (ANO1) [2]; 140 mM intracellular NaNO3, pipette 140 mM Cl^−, read-out: K1/2 of NFA inhibition): 54.8 ± 3.4 µM
IC50 (TMEM16A (ANO1) [2]; 140 mM intracellular NaSCN, pipette 140 mM Cl^−, read-out: K1/2 of NFA inhibition): 189 ± 7.4 µM
voltage dependence of K1/2 of NFA inhibition (TMEM16A (ANO1) [2]; between −40 mV and +40 mV): not voltage dependent
IC50 (TMEM16A (ANO1) [2]; current activated by 404 µM [Ba^2+], Vm = −20 mV, read-out: K1/2 of NFA inhibition): 22.6 µM
IC50 (TMEM16A (ANO1) [2]; current induced by 20 µM Ca^2+, −40, −20, +20, +40 mV, read-out: half-blocking concentration (K1/2) of NFA): 18 to 20 µM
IC50 (TMEM16A (ANO1) [2]; symmetrical 140 mM NaCl, −40 mV, read-out: K1/2 of NFA inhibition): 18.4 µM
IC50 (TMEM16A (ANO1) [3]; symmetrical 4 mM NaCl (136 mM Na-Glutamate added), −40 mV, read-out: K1/2 of NFA inhibition): 7.9 µM
increase of apparent affinity of NFA inhibition in 4 mM [Cl^−] compared with 140 mM [Cl^−] (TMEM16A (ANO1) [3]; symmetrical solutions): more than 2 fold
SMILES: O=C(O)c1cccnc1Nc1cccc(C(F)(F)F)c1 [NFA, niflumic acid]
sideness of the block (CaCC of Xenopus oocytes): from intracellular and extracellular sides with similar affinities
